Assays:
[1] = system: TNF-α; assay: TNF-α in LPS-treated BV2 cells; type: cell-based, mouse; parameters: unit not given here
Procedure: (§1) A mouse BV2 cell line was stored and maintained in a humidified incubator at 37° C. under a 5% CO2 condition using a DMEM culture medium supplemented with 10% FBS, 100 U/ml of penicillin and 100 μg/ml of streptomycin, was trypsinized, and was subcultured.
(§2) BV2 cells were placed in a 6-well plate at 7.5×10^5 cells/well, and stabilized at 37° C. and 5.0% CO2 for 12 hours. After that, LPS and the Fomes fomentarius CHCl3 fractions, the nonadecanone (2-Nonadecanone) or the docosenol (cis-13-Docosenol) compounds were placed according to groups and were incubated for 1 hour. The cell culture was collected and used for cytokine analysis. All the cell culture was removed, and then 1 ml of dPBS was dispensed to each well to wash and remove the wells. 200 μl of the lysis buffer was dispensed per well and the cells attached to the bottom of the well were removed with a cell scriper, and then were slowly mixed and reacted for […] on ice at 4° C. The cells were removed with a scriper again and all the lysis solution was collected. The collected lysis solution was centrifuged at 15,000 rpm for 15 minutes at 4° C. so that only the supernatant was collected. In order to plot standard curves for protein quantification, a standard BSA solution ([…]) and a dilution were prepared in which bradford solution and D.W. were diluted with 4:1. After the bradford dilution was dispensed in each 200 μl to 96-well, the standard BSA solution and the cell lysis supernatant were dispersed in a volume of 10 μl per well, and then they were mixed by pipetting. After 10 minutes, the protein was quantitated by measuring the absorbance at 595 nm in a reader. The subsequent procedures were carried out in the same manner as in the quantitative analysis of the protein of Example 3-3.

[2] = target: AChE (Homo sapiens, UniProt P22303); assay: Acetylcholinesterase inhibitory activity; type: biochemical; settings: read-out: acetylcholinesterase inhibitory activity (%)
Procedure: AChE and acetylthocholine iodine (ATC) were dissolved in 100 mM phosphate buffer (pH 8.0) to prepare 0.25 U/mL and 75 mM, respectively. […] 2.8 mL of phosphate buffer (100 mM, pH 8.0), 30 μL of AChE (0.25 U/mL), and 100 μL of DTNB were added to 30 μL of the extract, and were mixed. Then, the mixture was preincubated at 37° C. for 10 minutes. Then, 30 μL of substrate ATC was added thereto and was reacted at 37° C. for 3 minutes, and then the absorbance was measured at 412 nm. As a control group, 30 μL of 100 mM phosphate buffer (pH 8.0) was added instead of the extract, and then was measured.

[3] = system: IL-6; assay: IL-6 in LPS-treated BV2 cells; type: cell-based, mouse; parameters: unit not given here
Procedure: as §1, §2

[4] = system: IL-1β; assay: IL-1β in LPS-treated BV2 cells; type: cell-based, mouse; parameters: unit not given here
Procedure: as §1, §2

[5] = DPPH radical scavenging activity
Procedure: The present experiment used the property that the hydrazyl of diphenylpicrylhydrazyl (DPPH) used in the present experiment has a property of easily accepting a hydrogen atom since the nitrogen atom is unstable, so as to react with the antioxidant material to accept the hydrogen atom to lose its own orthochromatism.
(§3) First, in order to measure DPPH radical scavenging activity of the Fomes fomentarius fraction, 1.9 ml of 0.2 mM DPPH solution (99.5% ethanol) was added to 0.1 ml of solutions (control: 99.5% ethanol) in which the concentrated dried material of each Fomes fomentarius substance was prepared at 7 concentrations of 10, 20, 40, 80, 160, 320 and 640 μg/ml, respectively. The mixture was shaken with a vortex mixer for 10 seconds and then incubated at 37° C. for 30 minutes. Then, the absorbance was measured at 517 nm using a spectrophotometer.
As a positive control drug, L-ascorbic acid was prepared at […] of 10, 20, 40, 80, 160, 320, and 640 μg/mL (99.5% ethanol).
The present inventors measured DPPH radicals scavenging activity in the same manner as in Example <2-2> above using nonadecanone (2-nonadecanone) and docosenol (cis-13-Docosenol) compounds found in the above and Fomes fomentarius CHCl3 fraction of the present disclosure.
as §3, with “Acer tegmentosum maxim extract,” for “Fomes fomentarius fraction,”, “Acer tegmentosum maxim material” for “Fomes fomentarius substance”
As a positive control, L-ascorbic acid was prepared at […] of 10, 20, 40, 80, 160, 320, and 640 μg/mL (99.5% ethanol).
as §3, with “berchemia berchemiaefolia extract,” for “Fomes fomentarius fraction,”, “berchemia berchemiaefolia material” for “Fomes fomentarius substance”
as §3, with “Lithospermum erythrorhizon extract,” for “Fomes fomentarius fraction,”, “Lithospermum erythrorhizon material” for “Fomes fomentarius substance”

[6] = system: p38; assay: Western blotting of LPS-induced p38 phosphorylation in BV2 cells; type: cell-based, mouse
Procedure: as §2

Chain of AChE (P22303 32-614): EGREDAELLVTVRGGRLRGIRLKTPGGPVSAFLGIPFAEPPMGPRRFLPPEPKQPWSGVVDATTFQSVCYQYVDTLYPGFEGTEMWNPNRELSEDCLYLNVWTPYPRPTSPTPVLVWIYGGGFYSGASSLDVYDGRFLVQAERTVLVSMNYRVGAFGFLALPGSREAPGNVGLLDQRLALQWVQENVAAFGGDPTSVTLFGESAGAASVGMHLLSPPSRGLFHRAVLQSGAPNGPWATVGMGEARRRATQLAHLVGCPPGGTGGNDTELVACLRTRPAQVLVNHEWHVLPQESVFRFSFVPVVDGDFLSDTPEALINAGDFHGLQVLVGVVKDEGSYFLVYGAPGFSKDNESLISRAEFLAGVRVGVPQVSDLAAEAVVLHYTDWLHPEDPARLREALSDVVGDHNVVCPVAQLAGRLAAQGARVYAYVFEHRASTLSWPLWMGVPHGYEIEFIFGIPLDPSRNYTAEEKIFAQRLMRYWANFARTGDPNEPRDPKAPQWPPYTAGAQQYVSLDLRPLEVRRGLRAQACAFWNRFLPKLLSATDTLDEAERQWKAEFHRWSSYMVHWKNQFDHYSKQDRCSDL

| SMILES | TNF-α level ([1]; 5 μg/ml) | TNF-α level ([1]; 20 μg/ml) | TNF-α level ([1]; 50 μg/ml) | TNF-α level ([1]; 100 μg/ml) | inhibition at 10 µg/mL [2] [%] | inhibition at 20 µg/mL [2] [%] | inhibition at 40 µg/mL [2] [%] | inhibition at 80 µg/mL [2] [%] | inhibition at 160 µg/mL [2] [%] | inhibition at 320 µg/mL [2] [%] | inhibition at 640 µg/mL [2] [%] | IL-6 level ([3]; 5 μg/ml) | IL-6 level ([3]; 20 μg/ml) | IL-6 level ([3]; 50 μg/ml) | IL-6 level ([3]; 100 μg/ml) | IL-1β level ([4]; 5 μg/ml) | IL-1β level ([4]; 20 μg/ml) | IL-1β level ([4]; 50 μg/ml) | IL-1β level ([4]; 100 μg/ml) | DPPH radical scavenging activity (% antioxidant activity) ([5]; 10 μg/mL) [%] | also measured |
| --- | --- | --- | --- | --- | --- | --- | --- | --- | --- | --- | --- | --- | --- | --- | --- | --- | --- | --- | --- | --- | --- |
| CCCCCCCC/C=C\CCCCCCCCCCCCO [docosenol, cis-13-Docosenol] | 60.12±7.4 | 40.58±6.2 | 28.15±4.1 | 22.87±5.6 | 18.1 ± 2.6 | 23.1 ± 3.8 | 28.4 ± 1.9 | 35.9 ± 5.1 | 40.9 ± 6.8 | 55.1 ± 4.9 | 59.6 ± 6.6 | 301.56±7.6 | 249.35±10.1 | 171.68±5.5 | 138.51±6.8 | 65.15±7.6 | 59.12±6.1 | 50.55±4.2 | 48.19±5.8 | 1.3±0.4 | DPPH radical scavenging activity (% antioxidant activity) ([5]; 20 μg/mL): 2.6±0.2%; DPPH radical scavenging activity (% antioxidant activity) ([5]; 40 μg/mL): 5.8±0.6%; DPPH radical scavenging activity (% antioxidant activity) ([5]; 80 μg/mL): 7.7±0.6%; DPPH radical scavenging activity (% antioxidant activity) ([5]; 160 μg/mL): 6.6±0.7%; DPPH radical scavenging activity (% antioxidant activity) ([5]; 320 μg/mL): 8.8±1.1%; DPPH radical scavenging activity (% antioxidant activity) ([5]; 640 μg/mL): 10.6±0.9%; p-p38/p-38 ratio (%), expression ratio (vehicle 100%) ([6]; 5 μg/ml): about 69%; p-p38/p-38 ratio (%), expression ratio (vehicle 100%) ([6]; 20 μg/ml): about 48%; p-p38/p-38 ratio (%), expression ratio (vehicle 100%) ([6]; 50 μg/ml): about 36%; p-p38/p-38 ratio (%), expression ratio (vehicle 100%) ([6]; 100 μg/ml): about 25% |
| CCCCCCCCCCCCCCCCCC(C)=O [nonadecanone, 2-Nonadecanone] | 79.12±4.1 | 70.24±5.0 | 59.56±6.2 | 50.47±3.1 | 11.6 ± 1.1 | 18.9 ± 0.9 | 23.4 ± 2.8 | 30.1 ± 1.8 | 35.1 ± 3.1 | 41.5 ± 2.2 | 41.9 ± 3.8 | 451.25±6.9 | 441.61±7.1 | 389.64±10.1 | 351.85±8.7 | 70.12±4.8 | 65.56±5.1 | 58.11±6.5 | 43.66±3.4 | 5.6±0.9 | DPPH radical scavenging activity (% antioxidant activity) ([5]; 20 μg/mL): 8.9±0.8%; DPPH radical scavenging activity (% antioxidant activity) ([5]; 40 μg/mL): 11.6±1.1%; DPPH radical scavenging activity (% antioxidant activity) ([5]; 80 μg/mL): 13.5±1.4%; DPPH radical scavenging activity (% antioxidant activity) ([5]; 160 μg/mL): 14.6±1.0%; DPPH radical scavenging activity (% antioxidant activity) ([5]; 320 μg/mL): 16.8±2.1%; DPPH radical scavenging activity (% antioxidant activity) ([5]; 640 μg/mL): 20.5±1.8%; p-p38/p-38 ratio (%), expression ratio (vehicle 100%) ([6]; 5 μg/ml): about 75%; p-p38/p-38 ratio (%), expression ratio (vehicle 100%) ([6]; 20 μg/ml): about 54%; p-p38/p-38 ratio (%), expression ratio (vehicle 100%) ([6]; 50 μg/ml): about 42%; p-p38/p-38 ratio (%), expression ratio (vehicle 100%) ([6]; 100 μg/ml): about 29% |

Source: patent publication US11338004B2, “Composition for preventing or treating cranial nerve disease comprising fomes fomentarius extract, fraction thereof, or compound isolated therefrom as active ingredient” (priority 2015, dated 2022)
